Columns and labels:
[1] = tested on: Ku812-Luc+ (BCR-ABL+CML blast crisis) cells; assay: In vivo imaging of chemotherapy-induced apoptosis (AMN107); parameters: species or system mice; details: 100 mg/kg IP; day 5
Method: Subcutaneous tumors were established using Ku812-Luc+ (BCR-ABL+CML blast crisis) cells in NCr nude mice. When tumors were ˜1 cm, mice underwent bioluminescence imaging (BLI) to determine baseline tumor burden, followed by treatment with either AMN107 (nilotinib) at 100 mg/kg intraperitoneally (IP), or with vehicle. After 3 doses, animals were injected with 20 μg of LDH-Alexa750. Fluorescence imaging (FL) was performed 24 and 48 hrs after probe injection (day 4 and 5 of treatment) and BLI was repeated on day 5 of treatment (FIG. 9A).

apoptotic cells [2] = assay: Homogeneous multiwell apoptosis assay in normal growth medium; type: cell-based; details: e.g., RPMI with 10% FBS, flow cytometry or High-Content Microscopy
HeLa cells [3] = assay: FACS staining of camptothecin-treated apoptotic HeLa cells; type: cell-based; details: for percent apoptotic cells as measured with the probe: camptothecin; for cell staining over time (FACS): 12 h, 24 h, annexin binding buffer; for uptake by apoptotic HeLa cells (FACS) / uptake by control untreated HeLa cells (FACS): FIG. 6
Method: HeLa cells (5×10^5 in 10 cm plates) maintained in DMEM with 10% FBS were contacted with 5 μM camptothecin to induce apoptosis. Cell staining by FITC-labeled Annexin V (Abcam, Cambridge, Mass.) or Cy5.5-labeled chicken LDH (1 μL) prepared as described in Example 1, was measured by fluorescence-activated cell sorting (FACS) analysis (with cells in annexin binding buffer (Abcam)) 12 h, 24 h, and 48 h later. Untreated HeLa cells served as negative controls.
Staining by Annexin V is known to require the presence of calcium. […] HeLa cells treated with camptothecin to induce apoptosis as in Example 9 were stained with FITC-labeled Annexin V (Abcam, Cambridge, Mass.) or Cy5.5-labeled chicken LDH in calcium-containing Annexin buffer or in calcium-free PBS. Stained cells were analyzed by FACS analysis as in Example 9.
HeLa cells (5×10^5 in 10 cm plates) maintained in DMEM with 10% FBS were contacted with 5 μM camptothecin to induce apoptosis. Cell staining was done in the media: (i) annexin buffer, (ii) DMEM supplemented with 1% FBS; (iii) DMEM supplemented with 2% FBS; (iii) DMEM supplemented with 5% FBS; (iv) DMEM supplemented with 10% FBS. For cell staining FITC-labeled Annexin V (Abcam, Cambridge, Mass.) or Cy5.5-labeled chicken LDH (1 μL) prepared as described in Example 1, was used to for FACS analysis (cells in annexin binding buffer (Abcam)) 48 h later. Untreated HeLa cells served as negative controls. […]

apoptotic cells [4] = assay: Staining requirements (temperature, calcium) of cLDHB and Annexin V; type: cell-based
Method: To determine if cLDHB is actively transported into cells, staining was performed at room temperature and at 4° C.
A major limitation of Annexin V staining is the requirement for supra-physiological concentrations of calcium (Tait, J. F., D. F. Gibson, and C. Smith, Anal Biochem, 2004. 329: 112-9). To determine whether cLDHB staining required calcium, Annexin V and cLDHB staining was performed in PBS (without calcium or magnesium) or in Annexin Binding Buffer (with 2.5 mM calcium).

HeLa cells [5] = assay: Confocal microscopy of stained apoptotic HeLa cells; type: cell-based
RS4;11 cells = assay: FACS staining of RS4;11 cells treated with NVP-LAQ824; type: cell-based; details: RS4;11, 50 nM NVP-LAQ824, 24 h
Method: RS4;11 is a MLL-AF4 fusion transcript-positive t(4;11) pre-B ALL cell line that is highly resistant to chemotherapy and radiation. In this experiment RS4;11 cells (1×10^6) were treated with 50 nM NVP-LAQ824 (Novartis Pharma, Basel, Switzerland) for 24 h and then contacted with FITC-labeled Annexin V (Abcam, Cambridge, Mass.) or Cy5.5-labeled chicken LDH and analyzed by FACS as in Example 9. NVP-LAQ824 is a potent hydroxamic acid-derived histone deacetylase inhibitor that induces apoptosis in nanomolar concentrations in myeloid leukemia cell lines, multiple myeloma, and patient samples. Catley L et al. (2003) Blood 102:2615-22.
In a related experiment, RS4;11 cells were treated with 50 nM NVP-LAQ824 in culture media for 24 h and then stained with FITC-labeled Annexin V or A680-labeled human LDH-B in either Annexin buffer or culture media. Apoptosis was measured by FACS analysis. Results indicated a significant difference between 11-12 percent apoptotic cells as measured with FITC-labeled Annexin V in Annexin buffer versus only 4 percent apoptotic cells as measured with FITC-labeled Annexin V in culture media. In contrast, results indicated 11-12 percent apoptotic cells as measured with A680-labeled LDH-B, whether in Annexin buffer or culture media.

THP-1 cells [6] = assay: Competition for Annexin V and LDHB binding to apoptotic THP-1 cells; type: cell-based; details: probe 0.1 μM; for staining of apoptotic cells in the presence of excess unlabeled Annexin V: 5- and 10-fold excess
Method: To determine whether physiological levels of LDH may preclude binding of a LDH probe, the ability of excess unlabeled cLDHB and Annexin V to compete for binding of apoptotic cells by FITC conjugated Annexin V and cLDHB was assessed.
Apoptosis was induced in THP-1 cells with LAQ824 (50 nM, 18 hrs), and cells were stained with either Annexin V-FITC or cLDHB-FITC at a final concentration of 0.1 μM. For competition, staining was performed in the presence of excess unlabeled LDHB or Annexin V.

THP-1 cells [7] = assay: Staining of THP-1 cells treated with HDAC inhibitor LAQ824; type: cell-based; details: THP-1, LAQ824 50 nM, 18 hrs
Method: To correlate cLDHB staining with other measures of apoptosis, a fluorescent probe that binds to activated caspases (pan-caspase-FLICA, Immunochemistry Tech) was used. THP-1 cells were treated with the HDAC inhibitor LAQ824 (50 nM, 18 hrs) to induce apoptosis.
Similarly, we asked whether the […] proteins performed comparably to purified recombinant LDH.

hepatocyte apoptosis = assay: In vivo NIR imaging of fulminant hepatic failure (anti-Fas antibody); parameters: species or system mice; details: liver region; 10 μg probe; 25 hrs after probe injection
Method: This model was used to compare LDH to Annexin V for near infrared (NIR) imaging of apoptosis. Alexa750-NHS was conjugated to Annexin V (Biovision) and chicken LDHB (XpressBio) at a labeling ratio of 2:1 per mole of protein based on prior optimization. A total of 10 male NCr nude mice were injected with 5 μg of anti-Fas antibody (Jo2, Pharmingen), and 10 animals were injected with 5 μg of an isotype-matched control antibody. Two hours later, mice were injected with 10 μg of either LDH-Alexa750 or Annexin V-Alexa750. Mice underwent NIR fluorescence imaging (IVIS Spectrum, Caliper) 25 hrs after probe injection (FIG. 8A). After spectral unmixing and background subtraction (Living Images software package), regions of interest were used to quantify fluorescence localized to the liver region (FIG. 8A), as indicated with arrowheads.

[8] = calcium-containing Annexin V buffer

Cc1cn(-c2cc(NC(=O)c3ccc(C)c(Nc4nccc(-c5cccnc5)n4)c3)cc(C(F)(F)F)c2)cn1 [AMN107, nilotinib]
difference between treated animals and vehicle-treated controls by BLI [1]: 2 log
tumor response by BLI [1]: tumor regression

Annexin V: fluorescently labeled Annexin V probe used as comparator; FITC-labeled in Example 12 [reference compound]
staining / quantification of apoptosis with probe added directly to normal growth medium (apoptotic cells [2]): No Annexin V staining
percent apoptotic cells as measured with the probe (HeLa cells [3]; FBS 10 percent, HeLa, 48 h): about 15%
percent apoptotic cells as measured with the probe (HeLa cells [3]; FBS zero, HeLa, 48 h): about 50%
change of staining with increasing amounts of FBS (FACS) (HeLa cells [3]; HeLa treated with camptothecin): significantly decreased
staining in PBS (without calcium or magnesium) compared to Annexin Binding Buffer (2.5 mM calcium) (apoptotic cells [4]): significantly decreased

Cy5.5-labeled Annexin V: Cy5.5-labeled Annexin V (Abcam) [reference compound]
staining pattern (confocal microscopy) (HeLa cells [5]): membranous

Cy5.5-labeled chicken LDH: chicken lactate dehydrogenase (LDH-B) labeled with Cy5.5 N-hydroxysuccinimide ester as described in Example 1
apoptosis over background levels as measured with the probe (RS4;11 cells): only a mild increase
staining compared to FITC-Annexin V (RS4;11 cells): comparable
proportion of apoptotic cells detected compared to FITC-labeled Annexin V (HeLa cells [3]; HeLa, 5 μM camptothecin): comparable
cell staining over time (FACS) (HeLa cells [3]; HeLa, 5 μM camptothecin, 48 h): progressively stained positive
staining of apoptotic cells (FACS) (HeLa cells [3]; [8]): strongly and equally positive
staining of apoptotic cells (FACS) (HeLa cells [3]; calcium-free PBS): strongly and equally positive
percent apoptotic cells as measured with the probe (HeLa cells [3]; over the range FBS zero to 10 percent, HeLa, 48 h): about 65%
staining pattern (confocal microscopy) (HeLa cells [5]): punctate cytoplasmic

FITC-labeled Annexin V: FITC-labeled Annexin V (Abcam), phosphatidylserine-binding apoptosis probe [reference compound]
apoptosis over background levels as measured with the probe (RS4;11 cells): only a mild increase
apoptotic cells as measured with the probe (RS4;11 cells; staining in culture media): 4%
cell staining over time (FACS) (HeLa cells [3]; HeLa, 5 μM camptothecin, 48 h): progressively stained positive
staining of apoptotic cells (FACS) (HeLa cells [3]; [8]): strongly positive
staining of apoptotic cells (FACS) (HeLa cells [3]; calcium-free PBS): essentially not at all
staining pattern (confocal microscopy) (HeLa cells [5]): membranous
staining of apoptotic cells in the presence of excess unlabeled Annexin V (THP-1 cells [6]): abrogated

FITC-labeled chicken LDH: chicken LDH-B labeled with fluorescein isothiocyanate
staining pattern (confocal microscopy) (HeLa cells [5]): punctate cytoplasmic
staining of apoptotic cells in the presence of excess unlabeled Annexin V (THP-1 cells [6]): no effect
staining of apoptotic cells in the presence of excess unlabeled LDHB (THP-1 cells [6]; up to 100-(10 μM) and 350-fold (35 μM) excess): only marginally altered

LDHB: LDHB not fused to GST, served as a positive control
uptake by / staining of apoptotic cells (FACS) (HeLa cells [3]; HeLa, 5 μM camptothecin, 48 h, FIG. 5): stained apoptotic cells

cLDHB-A680: chicken LDHB labeled with A680 (Alexa 680)
coincidence of staining with caspase activation (pan-caspase-FLICA) (THP-1 cells [7]): entirely coincident

B1: labeled MDH: Cy5.5-labeled E. coli malate dehydrogenase (Alexa 680-labeled per FIG. 6 legend) (conjugate, UniProt P61889 1-312, looked up)
Malate dehydrogenase: MKVAVLGAAGGIGQALALLLKTQLPSGSELSLYDIAPVTPGVAVDLSHIPTAVKIKGFSGEDATPALEGADVVLISAGVARKPGMDRSDLFNVNAGIVKNLVQQVAKTCPKACIGIITNPVNTTVAIAAEVLKKAGVYDKNKLFGVTTLDIIRSNTFVAELKGKQPGEVEVPVIGGHSGVTILPLLSQVPGVSFTEQEVADLTKRIQNAGTEVVEAKAGGGSATLSMGQAAARFGLSLVRALQGEQGVVECAYVEGDGQYARFFSQPLLLGKNGVEERKSIGTLSAFEQNALEGMLDTLKKDIALGEEFVNK
modifications: Cy5.5 or Alexa 680 label
uptake by apoptotic HeLa cells (FACS) (HeLa cells [3]; 5 μM camptothecin): taken up
uptake by control untreated HeLa cells (FACS) (HeLa cells [3]): not by control untreated HeLa cells

B2: Annexin V-Alexa750: Annexin V (Biovision) conjugated to Alexa750-NHS at a labeling ratio of 2:1 (conjugate, UniProt P08758 2-320, looked up)
Annexin A5: AQVLRGTVTDFPGFDERADAETLRKAMKGLGTDEESILTLLTSRSNAQRQEISAAFKTLFGRDLLDDLKSELTGKFEKLIVALMKPSRLYDAYELKHALKGAGTNEKVLTEIIASRTPEELRAIKQVYEEEYGSSLEDDVVGDTSGYYQRMLVVLLQANRDPDAGIDEAQVEQDAQALFQAGELKWGTDEEKFITIFGTRSVSHLRKVFDKYMTISGFQIEETIDRETSGNLEQLLLAVVKSIRSIPAYLAETLYYAMKGAGTDDHTLIRVMVSRSEIDLFNIRKEFRKNFATSLYSMIKGDTSGDYKKALLLLCGEDD
modifications: Alexa Fluor 750 label
mean signal intensity (photons/sec/ROI) of anti-Fas antibody treated animals above IgG control antibody treated animals (hepatocyte apoptosis): 1.8 fold

B3: labeled ADH: Cy5.5-labeled yeast alcohol dehydrogenase (Alexa 680-labeled per FIG. 6 legend) (conjugate, UniProt P00330 2-348, looked up)
Alcohol dehydrogenase 1: SIPETQKGVIFYESHGKLEYKDIPVPKPKANELLINVKYSGVCHTDLHAWHGDWPLPVKLPLVGGHEGAGVVVGMGENVKGWKIGDYAGIKWLNGSCMACEYCELGNESNCPHADLSGYTHDGSFQQYATADAVQAAHIPQGTDLAQVAPILCAGITVYKALKSANLMAGHWVAISGAAGGLGSLAVQYAKAMGYRVLGIDGGEGKEELFRSIGGEVFIDFTKEKDIVGAVLKATDGGAHGVINVSVSEAAIEASTRYVRANGTTVLVGMPAGAKCCSDVFNQVVKSISIVGSYVGNRADTREALDFFARGLVKSPIKVVGLSTLPEIYEKMEKGQIVGRYVVDTSK
modifications: Cy5.5 or Alexa 680 label
uptake by apoptotic HeLa cells (FACS) (HeLa cells [3]; 5 μM camptothecin): taken up
uptake by control untreated HeLa cells (FACS) (HeLa cells [3]): not by control untreated HeLa cells

— patent US8999661B2, “Compositions for detecting cell death and methods of use thereof” (Dana-Farber Cancer Institute, Inc., priority 2008, dated 2015)
